According to patent US20070190523A1 (priority 2002, published 2007):
Like-named read-outs stand apart in the source and are kept apart here.

How the values were obtained:
[1] = test system: wild-type HIV-1 strain IIIB; assay: microbe, parasite or virus in culture; format: cell-based
[2] = test system: mutant HIV-1 with I84V/L90M mutations; format: cell-based
[3] = biological target: recombinant HIV-1 protease (Human immunodeficiency virus type 1 group M subtype B, UniProt P04585); assay: biochemical; format: biochemical; conditions: read-out: Ki
[4] = biological target: WT (Human immunodeficiency virus type 1 group M subtype B, UniProt P04585); assay: cell-based; design: species or system HIV
[5] = biological target: T1, 84V90M (Human immunodeficiency virus type 1 group M subtype B, UniProt P04585, I572V/L578M); assay: cell-based; design: species or system HIV
[6] = test system: recombinant HIV-1 strains with resistance mutations in the protease gene; assay: Cross-Resistance Profile Assay, whole panel; format: cell-based; conditions: {}
[7] = biological target: T1, 84V90M; assay: biochemical; format: biochemical, HIV; conditions: Enzymatic assay, 84V90M; read-out: 84V90M IC50/nM
[8] = test system: 30N82I88D; assay: microbe, parasite or virus in culture; format: cell-based, HIV; conditions: Human immunodeficiency virus 1, read-out: Cell-based assay (MT-4) EC50/nM 30N82I88D
[9] = Human immunodeficiency virus 1, IIIB, MT2, Table 10, class symbols
[10] = fold difference in EC50 vs wild type, class symbols
[11] = Human immunodeficiency virus 1, IIIB, MT2
[12] = MT-4, 84V90M, read-out: Cell-based assay (MT-4) EC50/nM 84V90M

SMILES: CCOC(=O)C(C)OP(=O)(Cc1ccc2c(c1)CCN(CC(NC(=O)OC1COC3OCCC13)C(O)CN(CC(C)C)S(=O)(=O)c1ccc(OC)cc1)C2)Oc1ccccc1 (stereo not drawn)
- EC50 [1, 9]: 50 to 500 nM
- I84V/L90M fold change [2, 10]: + (>3 to ≦10)

SMILES: CCOP(=O)(COc1ccc2c(c1)CCN(CC(NC(=O)OC1COC3OCCC13)C(O)CN(CC(C)C)S(=O)(=O)c1ccc(OC)cc1)C2)OCC (stereo not drawn)
- EC50 [1, 11]: 50 to 500 nM
- I84V/L90M fold change [2, 10]: + (>3 to ≦10)

SMILES: COc1ccc(S(=O)(=O)N(CC(C)C)CC(O)C(Cc2ccc(C)cc2)NC(=O)OC2COC3OCCC23)cc1 (stereo not drawn)
- EC50 [1, 11]: < 50 nM
- I84V/L90M fold change ([2]; I84V/L90M mutant): + (>3 to ≦10)

SMILES: CCOC(=O)C(C)OP(=O)(Cc1ccc(N(C)CC(NC(=O)OC2COC3OCCC23)C(O)CN(CC(C)C)S(=O)(=O)c2ccc(OC)cc2)cc1)Oc1ccccc1 (stereo not drawn)
- Ki [3]: 0.01 to 0.1 nM
- EC50 ([1]; read-out: EC50): 500 to 5000 nM
- I84V/L90M fold change ([2]; I84V/L90M mutant): +++ (>30)

SMILES: COc1ccc(S(=O)(=O)N(CC(C)C)CC(O)C(Cc2ccc(NCP(=O)(O)O)cc2)NC(=O)OC2COC3OCCC23)cc1 (stereo not drawn)
- EC50 ([1]; read-out: EC50): 50 to 500 nM

SMILES: Cc1cccc(C)c1OCC(=O)N[C@@H](Cc1ccc(OCP(=O)(Oc2ccccc2)Oc2ccccc2)cc1)[C@H](O)CN(CC(C)C)S(=O)(=O)c1ccc(N)cc1
- Ki [3]: 0.01 to 0.1 nM

SMILES: Cc1ccc(C(=O)N[C@@H](Cc2ccc(OCP(=O)(Oc3ccccc3)Oc3ccccc3)cc2)[C@H](O)CN(CC(C)C)S(=O)(=O)c2ccc(N)cc2)cc1O
- EC50 ([1]; read-out: EC50): 500 to 5000 nM

SMILES: CC(C)CN(C[C@@H](O)[C@H](Cc1ccc(OCP(=O)(OCc2ccccc2)OC(C)C(=O)OCc2ccccc2)cc1)NC(=O)O[C@H]1CO[C@H]2OCC[C@H]21)S(=O)(=O)c1ccc(OCc2ccccc2)cc1 (stereo partly drawn)
- EC50 ([1]; read-out: EC50): 500 to 5000 nM

SMILES: CCOP(=O)(CCCNC(=O)c1cccc(CN2C(=O)N(Cc3cccc(N)c3)C(Cc3ccccc3)C(O)C(O)C2Cc2ccccc2)c1)OCC (stereo not drawn)
- EC50 [4]: 176 nM

SMILES: CCOP(=O)(COc1ccc(CC2C(O)C(O)C(Cc3ccccc3)N(Cc3ccccc3)C(=O)N2Cc2ccccc2)cc1)OCC (stereo not drawn)
- EC50 [4]: 107 nM
- EC50 [5, 12]: 2460 nM

SMILES: Nc1n[nH]c2ccc(CN3C(=O)N(Cc4cccc(OCP(=O)(OCc5ccccc5)OCc5ccccc5)c4)C(Cc4ccccc4)C(O)C(O)C3Cc3ccccc3)cc12 (stereo not drawn)
- EC50 [4]: 898 nM

SMILES: CCOP(=O)(COc1cccc(CN2C(=O)N(Cc3ccc4[nH]nc(N)c4c3)C(Cc3ccccc3)C(O)C(O)C2Cc2ccccc2)c1)OCC (stereo not drawn)
- EC50 [4]: 665 nM

SMILES: Nc1n[nH]c2ccc(CN3C(=O)N(Cc4ccc(OCP(=O)(OCc5ccccc5)OCc5ccccc5)cc4)C(Cc4ccccc4)C(O)C(O)C3Cc3ccccc3)cc12 (stereo not drawn)
- EC50 [4]: 2700 nM

SMILES: CCOP(=O)(COc1ccc(CN2C(=O)N(Cc3ccc4[nH]nc(N)c4c3)C(Cc3ccccc3)C(O)C(O)C2Cc2ccccc2)cc1)OCC (stereo not drawn)
- EC50 [4]: 2480 nM

SMILES: CC(C)CN(C[C@@H](O)[C@H](Cc1ccccc1)NC(=O)O[C@H]1CCOC1)S(=O)(=O)c1ccc(N)cc1 [Amprenavir, amprenavir]
- Total No. of Resistant Viruses [6]: 4

SMILES: CCOP(=O)(COCCCCN1C(=O)N(Cc2ccc3[nH]nc(N)c3c2)C(Cc2ccccc2)C(O)C(O)C1Cc1ccccc1)OCC (stereo not drawn) [CH2OCH2PO3Et2]
- EC50 [4]: 119 nM

SMILES: Nc1n[nH]c2ccc(CN3C(=O)N(CCCCOCP(=O)(O)O)C(Cc4ccccc4)C(O)C(O)C3Cc3ccccc3)cc12 (stereo not drawn) [CH2OCH2PO3H2]
- EC50 [4]: 1760 nM

SMILES: CCCCN1C(=O)N(Cc2ccc3[nH]nc(N)c3c2)C(Cc2ccccc2)C(O)C(O)C1Cc1ccccc1 (stereo not drawn) [DMP-851]
- EC50 [4]: 54 nM

SMILES: CCCCOC(=O)C(Cc1ccccc1)NP(=O)(COc1ccc(CC(NC(=O)OC2COC3OCCC23)C(O)CN(CC(C)C)S(=O)(=O)c2ccc(OC)cc2)cc1)NC(Cc1ccccc1)C(=O)OCCCC (stereo not drawn) [Example 16j]
- EC50 ([1]; read-out: Anti-HIV-1 Cell Culture Activity EC50): 35 ± 7 nM

SMILES: COc1ccc(S(=O)(=O)N(CC(C)C)C[C@@H](O)[C@H](Cc2ccccc2)NC(=O)O[C@H]2CO[C@H]3OCC[C@H]32)cc1 [Example 94-003]
- Total No. of Resistant Viruses [6]: 3

SMILES: CC(C)(C)NC(=O)[C@@H]1CN(Cc2cccnc2)CCN1C[C@@H](O)C[C@@H](Cc1ccccc1)C(=O)N[C@H]1c2ccccc2C[C@H]1O [Indinavir]
- Total No. of Resistant Viruses [6]: 8

SMILES: Cc1c(O)cccc1C(=O)N[C@@H](CSc1ccccc1)[C@H](O)CN1C[C@H]2CCCC[C@H]2C[C@H]1C(=O)NC(C)(C)C [Nelfinavir, nelfinavir]
- Total No. of Resistant Viruses [6]: 9

SMILES: Nc1n[nH]c2ccc(CN3C(=O)N(CCCOCP(=O)(O)O)C(Cc4ccccc4)C(O)C(O)C3Cc3ccccc3)cc12 (stereo not drawn) [OCH2PO3H2]
- EC50 ([4]; MT-4, WT, read-out: Cell-based assay (MT-4) EC50/nM WT): 1070 nM
- EC50 [5, 12]: > 600 nM

SMILES: CCOP(=O)(COc1ccc(CC2C(O)C(O)C(Cc3ccc(OC)cc3)N(Cc3cccc(N)c3)C(=O)N2Cc2cccc(N)c2)cc1)OCC (stereo not drawn) [OCH3, Ph-mNH2, OCH2PO3Et2]
- EC50 [4]: 63 nM

SMILES: CC(C)CN(CC(O)C(Cc1ccc(O)cc1)NC(=O)OC1COC2OCCC12)S(=O)(=O)c1ccc(OCP(=O)(O)O)cc1 (stereo not drawn) [OH, OH]
- EC50 [1, 11]: > 5000 nM

SMILES: CCOP(=O)(COc1ccc(CC2C(O)C(O)C(Cc3ccc(O)cc3)N(Cc3ccc(O)cc3)C(=O)N2Cc2ccc(O)cc2)cc1)OCC (stereo not drawn) [OH, Ph-pOH, OCH2PO3Et2]
- EC50 [4]: 285 nM
- EC50 [5, 12]: 1910 nM

SMILES: CCOP(=O)(COc1ccc(CC(NC(=O)OC2CCOC2)C(O)CN(CC(C)C)S(=O)(=O)c2ccc(OC)cc2)cc1)OCC (stereo not drawn) [OMe, OEt]
- EC50 [1, 11]: < 50 nM
- I84V/L90M fold change ([2]; I84V/L90M mutant): ++ (>10 to ≦30)

SMILES: CC(C)c1nc(CN(C)C(=O)N[C@H](C(=O)N[C@@H](Cc2ccccc2)C[C@H](O)[C@H](Cc2ccccc2)NC(=O)OCc2cncs2)C(C)C)cs1 [Ritonavir]
- Total No. of Resistant Viruses [6]: 10

SMILES: CC(C)(C)NC(=O)[C@@H]1C[C@@H]2CCCC[C@@H]2CN1C[C@@H](O)[C@H](Cc1ccccc1)NC(=O)[C@H](CC(N)=O)NC(=O)c1ccc2ccccc2n1 [Saquinavir]
- Total No. of Resistant Viruses [6]: 4

SMILES: CCOC(=O)C(CC)NP(=O)(COc1ccc(CC(NC(=O)OC2COC3OCCC23)C(O)CN(CC(C)C)S(=O)(=O)c2ccc(OC)cc2)cc1)NC(CC)C(=O)OCC (stereo not drawn) [drawing 606 R1=Aba-Et R2=Aba-Et]
- EC50 [1, 11]: < 50 nM

SMILES: CCOC(=O)COP(=O)(COc1ccc(CC(NC(=O)OC2COC3OCCC23)C(O)CN(CC(C)C)S(=O)(=O)c2ccc(OC)cc2)cc1)OCC(=O)OCC (stereo not drawn) [drawing 607 R1=Glc-Et R2=Glc-Et]
- EC50 [1, 11]: 500 to 5000 nM
- I84V/L90M fold change [2, 10]: − (≦3)

SMILES: COc1ccc(S(=O)(=O)N(CC(C)C)CC(O)C(Cc2ccc(OCP(=O)(O)OC(C)C(=O)O)cc2)NC(=O)OC2COC3OCCC23)cc1 [drawing 609 R1=OH R2=(R)Lac-OH]
- I84V/L90M fold change [2, 10]: − (≦3)

SMILES: COc1ccc(S(=O)(=O)N(CC(C)C)CC(O)C(Cc2ccc(OCP(=O)(O)OC(C)C(=O)O)cc2)NC(=O)OC2COC3OCCC23)cc1 (stereo not drawn) [drawing 609 R1=OH R2=Lac-OH]
- I84V/L90M fold change [2, 10]: − (≦3)

SMILES: CCOC(=O)COP(=O)(COc1ccc(CC(NC(=O)OC2COC3OCCC23)C(O)CN(CC(C)C)S(=O)(=O)c2ccc(OC)cc2)cc1)Oc1ccccc1 (stereo not drawn) [drawing 609 R1=OPh R2=Glc-Et]
- EC50 [1, 9]: < 50 nM
- I84V/L90M fold change [2, 10]: − (≦3)

SMILES: CCCCOC(=O)C(C)OP(=O)(COc1ccc(CC(NC(=O)OC2COC3OCCC23)C(O)CN(CC(C)C)S(=O)(=O)c2ccc(OC)cc2)cc1)Oc1ccccc1 (stereo not drawn) [drawing 609 R1=OPh R2=Lac-Bu]
- I84V/L90M fold change [2, 10]: − (≦3)

SMILES: COc1ccc(S(=O)(=O)N(CC(C)C)CC(O)C(Cc2ccc(OCP(=O)(Oc3ccccc3)OC(C)C(=O)OC(C)C)cc2)NC(=O)OC2COC3OCCC23)cc1 (stereo not drawn) [drawing 609 R1=OPh R2=Lac-iPr]
- I84V/L90M fold change [2, 10]: − (≦3)

SMILES: CCOP(=O)(CON=Cc1ccc(CC(NC(=O)OC2COC3OCCC23)C(O)CN(CC(C)C)S(=O)(=O)c2ccc(OC)cc2)cc1)OCC (stereo not drawn) [drawing 615 R1=Et R2=Et]
- I84V/L90M fold change [2, 10]: − (≦3)

SMILES: Nc1n[nH]c2ccc(CN3C(=O)N(Cc4cccc(OCc5ccccc5)c4)C(Cc4ccccc4)C(O)C(O)C3Cc3ccccc3)cc12 (stereo not drawn) [m-OBn]
- IC50 [7]: 27 nM
- EC50 [4]: 218 nM
- EC50 [5, 12]: 2420 nM

SMILES: Nc1n[nH]c2ccc(CN3C(=O)N(Cc4cccc(OCP(=O)(O)O)c4)C(Cc4ccccc4)C(O)C(O)C3Cc3ccccc3)cc12 (stereo not drawn) [m-OCH2PO3H2]
- EC50 [4]: > 12000 nM

SMILES: Nc1n[nH]c2ccc(CN3C(=O)N(Cc4cccc(OCP(=O)(O)Oc5ccccc5)c4)C(Cc4ccccc4)C(O)C(O)C3Cc3ccccc3)cc12 (stereo not drawn) [m-OCH2PO3HPh]
- EC50 [4]: 1750 nM

SMILES: Nc1n[nH]c2ccc(CN3C(=O)N(Cc4cccc(OCP(=O)(Oc5ccccc5)Oc5ccccc5)c4)C(Cc4ccccc4)C(O)C(O)C3Cc3ccccc3)cc12 (stereo not drawn) [m-OCH2PO3Ph2]
- EC50 [4]: 1350 nM

SMILES: Nc1n[nH]c2ccc(CN3C(=O)N(Cc4cccc(O)c4)C(Cc4ccccc4)C(O)C(O)C3Cc3ccccc3)cc12 (stereo not drawn) [m-OH]
- EC50 [4]: 151 nM

SMILES: Nc1n[nH]c2ccc(CN3C(=O)N(Cc4ccc(OCc5ccccc5)cc4)C(Cc4ccccc4)C(O)C(O)C3Cc3ccccc3)cc12 (stereo not drawn) [p-OBn]
- IC50 [7]: 781 nM
- EC50 [4]: 2120 nM
- EC50 [5]: 5310 nM
- EC50 [8]: 1550 nM

SMILES: Nc1n[nH]c2ccc(CN3C(=O)N(Cc4ccc(OCP(=O)(O)O)cc4)C(Cc4ccccc4)C(O)C(O)C3Cc3ccccc3)cc12 (stereo not drawn) [p-OCH2PO3H2]
- IC50 [7]: 1660 nM
- EC50 [4]: > 12000 nM

SMILES: O=C1N(Cc2ccccc2)[C@H](Cc2ccccc2)[C@H](O)[C@@H](O)[C@@H](Cc2ccccc2)N1Cc1ccc2[nH]ncc2c1 [reference compound]
- EC50 [4]: 193 nM
- EC50 [5, 12]: 2310 nM
